Source: patent US11072592B2, “Small molecules that enable cartilage rejuvenation” (The Regents of the University of California, priority 2015, dated 2021)
Entries after “also recorded” stand apart in the source; their conditions may differ.

Experiments:
[1] = system: adult human articular chondrocytes; test: Transwell migration assay, adult human articular chondrocytes; type: cell-based
Experimental: Cells were plated on Millicell 8 μm Transwell® inserts (Millipore, Billerica, Mass.) in 12-well plates (Fisher Scientific, Pittsburgh, Pa.) and stimulated with 10 μM of RCGD 423, 10 μM MYC inhibitor (10058-F4) or 10 μM STAT3 inhibitor (STATTIC) from Tocris Bioscience (Bristol, UK). Cells that migrated across the membranes were quantified by counting after 48 hours of treatment.

cartilage explants = test: Cartilage explant culture: tissue expansion, COL2 and GAG content; type: cell-based, pig; settings: for expansion of cartilage tissue in explants: cartilage explants/plugs in culture
Excerpt: The same stimulatory effect was achieved after treatment of explants with CRMs identified in our small molecule screen. […] This can test if activation of p-STAT3 and c-MYC by selected small molecules CRM-398 and -423 can result in in situ expansion of articular cartilage tissue.
Mature articular cartilage is comprised of chondrocytes contained within lacunae surrounded by dense extracellular matrix. In order for a regenerative response to occur, proliferation, survival and migration must all proceed in concert. […] We designed two sets of experiments to assess the ability of RCGD 423 to operate in this capacity. First, RCGD 423 or cytokines implicated in the growth and differentiation of articular cartilage were incubated with small plugs of cartilage tissue; after 5 weeks, the amount of COL2 and glycosaminoglycans (GAGs) were determined.
Cartilage explants were washed with PBS and then directly digested or stored at […]. For digestion, explants were transferred in digestion buffer composed of 1 mg/mL proteinase K in Tris/Ethylene diamine tetra-acetic acid (EDTA) buffer (pH 7.6) containing 18.5 μg/mL iodoacetamide and 1 μg/mL pepstatin A) for 16-72 h at 56° C. After complete digestion the GAG content was spectrophotometrically determined with 1,9-dimethylmethylene blue chloride staining in the phosphate buffer with ethylene diamine tetra-acetic acid buffer (14.2 g/L Na2HPO4 and 3.72 g/L Na2EDTA, pH 6.5) using an Infinite M1000 Pro microplate reader (Tecan) at an absorbance of 520 nm with chondroitin sulfate as a standard. Amount of total DNA in explants was determined by a CyQuant DNA Kit (Molecular Probes by Life Technology) using Qubit 1.0 fluorometer (Invitrogen).
Cultured explants were first digested in testicular hyaluronidase (0.05% in 50 mM HEPES) for 2 hours at 37° C. 0.5M glacial acetic acid was added to digestion solution to maximize the collagen swelling and provide best pepsin access. Pepsin (250 μg/ml) was then used to further digest the pellets in combination with rotation and occasional gentle vortexing at 4° C. for 18-24 hours. Cold tris base and NaOH were added to the digestion solution to neutralize the acetic acid. Digestion solution was vigorously vortexed immediately, and subsequently rotated at 4° C. overnight to maximize collagen solubility. Tubes were centrifuged to separate undigested tissue and supernatant. Any undigested tissue was subjected to the digestion process again. All supernatants were combined for ELISA. Concentration of collagen II in the supernatant was measured by Type I/II Collagen Detection Kit (Chondrex, Inc, Redmond, Wash.), according to manufacturer's instruction and normalized either to DNA content or wet weight of the explants determined prior to experimentation.

pSTAT3 and MYC = test: Western blot of pSTAT3 and MYC in adult pig articular chondrocytes; type: cell-based; settings: for levels of MYC / levels of pSTAT3: adult pig articular chondrocytes, treated vs untreated, relative to histone H3
Excerpt: Only early passages of chondrocytes (passage 0-2) were used for experimentation to avoid de-differentiation and loss of cartilage phenotype (Wu et al., 2014). Cartilage explants were made using 1, 2 or 8 mm biopsy punch and wet weight of each explant determined prior to experimentation. For cell isolation cartilage tissue was digested as described previously (Wu et al., 2015). Postnatal paraffin embedded joint and growth plate specimens were kindly donated by Dr Marcel Karperien from the University of Twente (Netherlands) and Dr Nick Bernthal from University of California Los Angeles. All donated material was anonymous and carried no personal identifiers. Cell culture reagents were purchased from Life Technologies, Inc. (Grand Island, N.Y.). Growth factors LIF, OSM, IL-6, TNF-α, IL-1β were purchased from Life Technologies, Inc (Grand Island, N.Y.). STATTIC, 10058-F4, SCl44 hydrochloride, and CP-690550 were purchased from Sigma Aldrich (St. Louis, Mo.). RCGD 423 (N-(4-Bromophenyl)-4-phenyl-1,3-thiazol-2-amine) was synthesized and provided by MolPort (Riga, Latvia). Fetal, adult and pig chondrocytes were cultured in DMEM F12 medium containing 10% (vol/vol) fetal bovine serum and 1% Penicillin-Streptomycin (vol/vol) at 37° C. in a humidified atmosphere of 95% aid and 5% CO2. Media was replenished with DMEM F12 medium containing 1% (vol/vol) fetal bovine serum and 1% Penicillin-Streptomycin (vol/vol) once treatments were added. For 3-dimensional (3D) cell cultures adult human articular chondrocytes were incubated with or without RCGD 423 using 10% solution of Mebiol® hydrogel from Cosmo Bio (Carlsbad, Calif.) in X-vivo 15 serum free medium from Lonza (Walkersville, Md.) as described previously (Wu et al., 2014).
Treated and non-treated ells were lysed in RIPA Lysis and Extraction Buffer (Pierce, Rockford, Ill.) containing protease inhibitors (Pierce) followed by sonication with a 15-second pulse at a power output of 2 using the VirSonic 100 (SP Industries Company, Warminster, Pa.). Protein concentrations were determined by BCA protein assay (Pierce). Proteins were resolved with SDS-PAGE utilizing 4-15% Mini-PROTEAN TGX Precast Gels and transferred to Trans-Blot Turbo Transfer Packs with a 0.2-μm pore-size nitrocellulose membrane. The SDS-PAGE running buffer, 4-15% Mini-PROTEAN TGX Precast Gels, Trans-Blot Turbo Transfer Packs with a 0.2-μm pore-size nitrocellulose membrane were purchased from Biorad (Hercules, Calif.). Nitrocellulose membranes were blocked in 5% nonfat milk in 0.05% (v/v) Tween 20 (PBST) (Corning, Manassas, Va.). Membranes were then incubated with primary antibodies phospho-STAT3 (#9131), MYC (#5605), NF-κB p65 (#D14E12), pAKT (#9272) Histone 3 (#9715) from Cell Signaling, (Danvers, Mass.); MEK1/2 (ab70613) and p38 (ab795) from Abcam (Cambridge, Mass.) overnight. After washing in PBS containing 0.05% (v/v) Tween 20 (PBST), membranes were incubated with Goat anti-Rabbit IgG (H+L) Secondary Antibody (Thermo Scientific Rockford, Ill.). After washing, membranes were developed with the Clarity Western ECL Blotting Substrate (Hercules, Calif.).

[2] = pig adult articular chondrocytes, 1 μM

| Compound | migration / migratory potential [1] | COL2 (cartilage explants; after 5 weeks) | glycosaminoglycans (GAGs) (cartilage explants; after 5 weeks) | expansion of cartilage tissue in explants (cartilage explants) | levels of MYC (pSTAT3 and MYC) | levels of pSTAT3 (pSTAT3 and MYC) | levels of c-MYC (pSTAT3 and MYC; [2]) | levels of p-STAT3 (pSTAT3 and MYC; [2]) |
| --- | --- | --- | --- | --- | --- | --- | --- | --- |
| Brc1ccc(Nc2nc(-c3ccccc3)cs2)cc1 [RCGD 423, N-(4-Bromophenyl)-4-phenyl-1,3-thiazol-2-amine] | increased | increases | increases | strong expansion | strong increases | strong increases | elevated | elevated |
| LIF: interleukin 6 (IL-6)-class cytokine | increased |  |  | significant expansion; also recorded: small expansions | increase | increase |  |  |
